The text below walks through data of patent EP2845588A1, “PIN1 inhibitors for use in the prevention and/or treatment of theileriosis, and related applications” (Centre National de la Recherche Scientifique (CNRS), priority 2013, dated 2015).

The test system of one experiment is host bovine bPIN1. Put plainly: Quantitative PCR of host bPIN1 transcripts. It is filed as cell-based. The protocol: (§1) Total cellular RNAs were extracted using an RNeasy Plus Mini Kit (Qiagen, Hilden, Germany) and parasite RNAs were extracted using the classical Trizol Protocol. cDNA synthesis was performed with the Reverse Transcriptase Superscript III (Invitrogen, CA, USA).
(§2) Quantitative PCR amplification was performed in the ABI 7500 machine (Applied Biosystems, CA, USA) using the Sybr Green reagent (Applied Biosystems, CA, USA) using the primers listed in Table 5 below. The detection of a single product was verified by dissociation curve analysis. Relative quantities of mRNA were analyzed using the delta Ct method. The βactin qPCR was used for normalization. Table 5: qPCR primers

Experiment [1] relates to c-Jun and FBW7 ubiquitination in TBL3 cells. Put plainly: Ubiquitination of endogenous c-Jun and FBW7 in TBL3 cells. It is filed as cell-based, bovine.
Experiment [2] relates to Theileria parasites in TBL3-infected cells. Put plainly: Parasites quantification by DAPI staining in infected cells. The class given is cell-based, T.annulata. The conditions noted are these: 72h, Buparvaquone 200ng/ml, Juglone 5 µM, PiB 1 µM. The protocol: All infected bovine cell lines used in this study were previously described: TBL3 cells were derived from in vitro infection of the spontaneous bovine-B lymphosarcoma cell line, BL3, with Hissar stock of T.annulata. The TpMD409 lymphocyte cell line are infected with T. parva. The culture conditions of these cell lines were previously described by Moreau et al., 1999. Cells were cultured in RPMI 1640 (Gibco-BRL, Paisley, UK), supplemented with 10% heat-inactivated Fetal calf serum, 4mM L-Glutamine, 25mM HEPES, 10µM β-mercaptoethanol and 100µg/ml penicillin/streptomycin in a humidified 5%CO2 atmosphere at 37°C. HepG2, NIH/3T3 and MEF cells lines were cultured in DMEM (Gibco-BRL, Paisley, UK), supplemented with 10% heat-inactivated Fetal calf serum, 4mM L-Glutamine, 25 mM HEPES, 10µM β-mercaptoethanol and 100µg/ml penicillin/streptomycin in a humidified 5% CO2 atmosphere at 37°C. Cell numbers, as judged by Trypan Blue exclusion test, were determined by counting cells using a Countess automated cell counter (Invitrogen, CA, USA). The anti-parasite drug Buparvaquone (BW720c) was used at 200ng/ml for 72 hours. BW720c has no effect on growth of uninfected cells. […] Images of immunofluoresence staining were photographed with a fluorescent microscope (Leica Inverted 6000) and the number of parasites per cells was counted. […]

Experiment [3] relates to transcripts encoding glycolytic enzymes. The experiment in a line: Expression of transcripts encoding glycolytic enzymes in Theileria-infected cells. It is filed as cell-based, bovine. The method, then:
as §1, §2

For experiment [4], the system named is TpPIN1 (TP01_0114) transcripts. Put plainly: Quantitative PCR of TpPIN transcripts in T.parva-infected cells. It is filed as cell-based. The method, then: as §1, §2
In a further experiment the target is T1, TaPIN Mutant A53P (Theileria annulata, UniProt Q4UG71, A53P).
T1 construct: expressed in transfected cells; host or cells: TBL3 (T. annulata-infected bovine B cells), electroporated with pRev-HA-FLAG-TaPIN A53P-RIL2
The experiment in a line: CyclinD1-Luciferase reporter assay, TaPIN Mutant A53P in TBL3 cells. It is filed as cell-based, T. annulata. The following applies: parasite-infected cells (TBL3). The text has this:
After sequencing the TaPIN gene expressed in Buparvaquone-resistant infected cells, the Ala53Pro point mutation identified in said gene was introduced into the pRev-HA-FLAG-TaPIN WT-RIL2 plasmid using the set of primers of sequence SEQ ID NO:41 and SEQ ID NO:42 following a 3-step PCR protocol.
(§3) Bovine cells were transfected with the 5xHRE (Staller et al., 2003) or CyclinD1- (Wulf et al., 2001) Luciferase reporters, using electroporation (Neon kit, Invitrogen, CA, USA). Mouse cells were transfected using Lipofectamine 2000 (Invitrogen, CA, USA). Transfections efficiencies were normalized to Renilla activity by co-transfection of a pRL-TK Renilla reporter plasmid (Promega, Ref.: E6241). Luciferase assays were performed 36h post-transfection using the Dual-Luciferase Reporter Assay System (Promega, Ref: E1980) in a microplate luminometer. Relative luminescence was represented as the ratio Firefly/Renilla luminescence, compared with the corresponding empty vector control. The 5xHRE promoter-Luciferase construct was obtained from P Staller (Biotech Research & Innovation Centre, Copenhagen, […]).

A further experiment concerns HepG2 cells. The experiment in a line: Soft agar colony forming assay, HepG2. The class given is cell-based, human. The following applies: number of colonies per plate. The method, then: All infected bovine cell lines used in this study were previously described: TBL3 cells were derived from in vitro infection of the spontaneous bovine-B lymphosarcoma cell line, BL3, with Hissar stock of T.annulata. The TpMD409 lymphocyte cell line are infected with T. parva. The culture conditions of these cell lines were previously described by Moreau et al., 1999. Cells were cultured in RPMI 1640 (Gibco-BRL, Paisley, UK), supplemented with 10% heat-inactivated Fetal calf serum, 4mM L-Glutamine, 25mM HEPES, 10µM β-mercaptoethanol and 100µg/ml penicillin/streptomycin in a humidified 5%CO2 atmosphere at 37°C. […] Cell numbers, as judged by Trypan Blue exclusion test, were determined by counting cells using a Countess automated cell counter (Invitrogen, CA, USA). […]
A two-layer soft agar culture system was used. […] Cultures were incubated in humidified 37°C incubators with an atmosphere of 5%CO2 in air, and control plates were monitored for growth using a microscope. At the time of maximum colony formation (10 days in culture), final colony numbers were counted manually after fixation a staining with 0.005% Crystal Violet (Sigma, Ref.: C3886).

For experiment [5], the system named is HIF1alpha transcriptional activity. Put plainly: HRE-Luciferase reporter assay. The class given is cell-based, bovine. The protocol: as §3

Take `CC(C)(C)C1CCC(CC2=C(O)C(=O)c3ccccc3C2=O)CC1` (stereo not shown) [Buparvaquone, 2-((4-tert-butylcyclohexyl)methyl)-3-hydroxy-1,4-naphthoquinone]: the “level of RNA transcripts encoding the host bovine bPIN1 protein” value in the experiment with host bovine bPIN1 is given as “not affected”. The “ubiquitination of endogenous c-Jun protein” value in experiment [1] (TBL3 cells) is “elevated”. Further, the “rescue of the drug effect on c-Jun ubiquitination by overexpressing the TaPIN A53P mutant” value in experiment [1] (TBL3 cells overexpressing TaPIN A53P) was “rescued”. The “parasites in TBL3 cells” value in experiment [2] was “eliminate parasites”. Also, the “expression of the transcripts encoding glycolytic enzymes” value in experiment [3] is recorded as “reduced expression”. Further, the “drug-induced decrease in glycolytic enzyme expression on overexpression of the TaPIN A53P mutant” value in experiment [3] (overexpression of TaPIN A53P) is recorded as “reversed”. For the same compound, the TpPIN1 transcripts entry in experiment [4] was “reduced”. For the same compound, on TaPIN Mutant A53P, the “CyclinD1 promoter activation induced by the TaPIN Mutant A53P” value was “no significant effect”. The “soft agar colony-forming potential of HepG2 cells” value with HepG2 cells was “decreased”. The HIF1alpha transcriptional activity entry in experiment [5] is “reduced”.
For the compound `CCOC(=O)CN1C(=O)c2ccc3c4c(ccc(c24)C1=O)C(=O)N(CC(=O)OCC)C3=O` [PiB, benzo[Imn][3,8]phenanthroline-2,7-diacetic acid, 1,3,6,8-tetrahydro-1,3,6,8-tetraoxo-, diethyl ester], in experiment [2], the “parasites in TBL3 cells” value is given as “eliminate parasites”. Also, the “expression of the transcripts encoding glycolytic enzymes” value in experiment [3] was “reduced expression”. Besides, in experiment [5], the HIF1alpha transcriptional activity result is “reduced”.
